From US20120122728A1, “Method Of Screening Drugs For Reversal Of Amyloid Beta Neurotoxicity” (UNIVERSITY OF CENTRAL FLORIDA RESEARCH FOUNDATION, INC., priority 2009, published 2012)

Key:
[1] = test system: cultured embryonic rat hippocampal neurons; assay: MEA extracellular recording of spontaneous firing of cultured hippocampal neurons exposed to Aβ; type: cell-based; parameters: time until spiking activity of the cells stopped: dose or concentration left out as unconfirmed
Method: The MEAs and accompanying accessories, including the temperature controller, stimulator, amplifier and MC_Rack V 3.5.8 data acquisition software were obtained from ALA Scientific (Westbury, N.Y.) and Multichannel Systems (Reutlingen, Germany). The MEAs comprised of a glass base that acted as a substrate, gold connector contacts and electrodes composed of titanium nitride. Rings were made of Sylgard184 (Dow Corning) (1 part curing base and 10 parts elastomer base, cured at 60 uC for 45 minutes) using glass molds and were attached onto the MEAs after surface modification. Recordings were obtained from 12-16 D. old cultures. Cultures were kept in the incubator between recording sessions.
N-1(3-[trimethoxysilyl]propyl)-diethylenetriamine (DETA) was used to modify the MEAs to enhance cell attachment since the use of synthetic substrates such as DETA, allows for reproducible and precise quantification of the culture substrate properties. Glass coverslips (18 mm diameter, Number 1; VWR) were cleaned in two steps. First, they were soaked in 50/50% HCl (37%) (VWR)/methanol (Sigma), followed by H2SO4 (98%) (VWR) treatment. Next, they were rinsed in double distilled water. The coverslips were then boiled in deionized water, rinsed with acetone, and oven dried. The MEAs were initially cleaned overnight in 2% Tergazyme (Sigma) detergent solution. They were then rinsed in distilled water and plasma cleaned in a plasma cleaner (Harrick Plasma) for 30 mins. The N-1(3-[trimethoxysilyl]propyl)-diethylenetriamine (DETA) (United Chemical Technologies) surface assembled monolayer (SAM) film was formed by the reaction of the cleaned surfaces with a 0.1% (v/v) mixture of the organosilane in toluene. The DETA/toluene solution containing the MEAs was heated to 70 uC, rinsed with toluene, reheated to 70 uC, and then oven dried. Surfaces were characterized using contact angle measurement and X-ray photoelectron spectroscopy (XPS) as described previously.
(§1) All applied procedures were approved by the Institutional Animal Care and Use Committee of UCF. The protocol was modified from previously published work concerning embryonic rat hippocampal cultures. Pregnant rats, 18 days in gestation, obtained from Charles River were euthanized with carbon dioxide and the fetuses were collected in ice cold Hibernate E (BrainBits)/B27/Glutamax™/Antibiotic-Antimycotic (Invitrogen) (dissecting medium). Each fetus was decapitated and the whole brain was transferred to fresh ice cold dissecting medium. After isolation, the hippocampi were collected in a fresh tube of dissecting medium. Hippocampal neurons were obtained by triturating the tissue using a Pasteur pipette. In order to remove any debris from damaged cells the 1 ml cell suspension was layered over a 4 ml step gradient (Optipep diluted 0.505:0.495 (v/v) with the dissecting medium and then made to 15%, 20%, 25% and 35% (v/v) in the dissecting medium) followed by centrifugation for 15 min at 800 g and 4 uC. After centrifugation, one strong band of cells was obtained. This band of cells was resuspended in culture medium (Neurobasal/B27/Glutamax™/Antibiotic-Antimycotic) and plated at a density of 100 cells/mm2 on DETA coated coverslips for patch clamp electrophysiology and at 200 cells/mm2 on the MEAs.
(§2) Different concentrations of Aβ (1-42) (Bachem) aggregates were prepared according to the protocol by Klein [1] in Neurobasal medium without phenol red, and quantified using Immunoblots. Curcumin (Cayman Chemicals) was prepared and the concentration chosen according to previously published protocols.
In all experiments with MEAs Aβ was administered to the cells on day 16 in vitro. We chose experimental paradigms similar to those used for patch clamp electrophysiology, to study the potential therapeutic effects of curcumin. In coadministration experiments, cells were exposed to a mixture of 100 nM Aβ and 1 mM Curcumin for 24 hrs, and recordings were performed. […]

[2] = test system: cultured embryonic rat hippocampal neurons; assay: Whole cell patch clamp electrophysiology of hippocampal neurons exposed to Aβ; type: cell-based
Excerpt: as §1, §2
For patch clamp electrophysiology experiments, Aβ was administered to the cells on day 10 in vitro and recordings were performed after 24 hrs to obtain baseline values for control cells and Aβ treated cells. In coadministration experiments, a mixture of 100 nM Aβ and 1 mM curcumin was administered for 24 hrs after which patch clamp electrophysiology recordings were performed. In sequential administration, cells were initially exposed to freshly aggregated Aβ alone, followed by replacement of the Aβ solution with curcumin for 24 hrs patch clamp recordings were performed 24 hrs after curcumin treatment. Whole-cell patch clamp recordings were performed at room temperature in a recording chamber on the stage of a Zeiss Axioscope 2 FS Plus upright microscope as described in [44].

[3] = test system: hippocampal cells; assay: Cell survival (live dead assay, MTT assay) after Aβ treatment; type: cell-based, rat
Method: To confirm this finding a MTT assay (3-[4,5-dimethylthiazol-2-yl]-2,5-diphenyl tetrazolium bromide) was performed on the amyloid treated cells and this supported the results obtained with the live dead assay.

[4] = target: T1, Aβ oligomerization (Homo sapiens, UniProt P05067); assay: Immunoblot of Aβ oligomers; type: biochemical; conditions: immunoblot lane 2
T1 sequence (P05067 672-713 limits assumed): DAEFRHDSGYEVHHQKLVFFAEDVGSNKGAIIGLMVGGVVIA
Method: Different concentrations of Aβ (1-42) (Bachem) aggregates were prepared according to the protocol by Klein [1] in Neurobasal medium without phenol red, and quantified using Immunoblots. Curcumin (Cayman Chemicals) was prepared and the concentration chosen according to previously published protocols [20].

[5] = target: T1, Aβ oligomerization; conditions: literature [20], compared with Ibuprofen; cited from earlier work
[6] = test system: amyloid plaque burden; conditions: transgenic APPsw mice; cited from earlier work
[7] = all measured concentrations of Aβ

Molecule	time until the cells stopped firing ([1]; 50 nM Aβ, lowest concentration)	time until spiking activity of the cells stopped ([1]; Aβ, highest concentration tested)	effect on spontaneous spiking activity [1, 7]	firing frequency preceding blockade of spontaneous activity [1, 7]	outward (K+) currents ([2]; 100 nM Aβ, 24 h)	resting membrane potential ([2]; 100 nM Aβ, 24 h)	spontaneous firing ([2]; 100 nM Aβ, 24 h, 30 exposed cells)	cell survival compared to the control ([3]; 100 nM Aβ, 24 hours and 7 days)	cell death ([3]; high concentrations of Aβ, cells on MEAs)	time at which drop in firing frequency reached a plateau ([1]; after curcumin and Aβ were coadministered)	time at which recovery of spontaneous firing was observed ([1]; after curcumin was applied post Aβ exposure)	ameliorating Aβ toxicity, coadministration versus administration after 24 h Aβ ([2]; low doses of curcumin)	Aβ oligomerization in the presence of Curcumin [4]	Aβ oligomer formation and Aβ toxicity [5]	amyloid plaque burden [6]
Aβ: Amyloid beta (1-42) peptide (Bachem), soluble oligomer aggregates used as neurotoxicant [Aβ (1-42)]	about 11 h	about 150 min	completely abolishes spontaneous spiking activity	significant increase in firing frequency	increase in the amplitude of the outward (K^+) currents	depolarization in the resting membrane potential	no spontaneous action potentials were recorded	small differences in cell survival compared to the control	high cell death						
COc1cc(/C=C/C(=O)CC(=O)/C=C/c2ccc(O)c(OC)c2)ccc1O [curcumin]										about 18 hrs	around 10 hrs	more successful in ameliorating Aβ toxicity when coadministered with Aβ	apparent inhibition of Aβ oligomerization	inhibiting Aβ oligomer formation and Aβ toxicity at significantly lower concentrations than Ibuprofen	reduce amyloid plaque burden
